From paper PMC11271627, “Molecular dynamics-guided optimization of BGM0504 enhances dual-target agonism for combating diabetes and obesity” (Scientific Reports, 2024)
Marks after values point to notes of the source that are not given here.

How the values were obtained:
[1] = molecular target: T1, Human Serum Albumin (HSA) protein (Homo sapiens, UniProt P02768); assay: biochemical; type: binding
T1 construct: purified Human ALB (25–609)-His was immobilized
Excerpt: The buffer used was PBST (PBS with 0.02% Tween 20).

[2] = tested on: db/db mice; assay: Blood glucose reducing effect in db/db mice model; type: in vivo; settings: for Insulin in serum: 31 days, ELISA, three days after last dose, Mean±SD, n=11
Experimental: In contrast, the db/db-ND group received only the drug vehicle via subcutaneous injection. Three parallel experimental groups were established to explore the dose-dependent characteristics of BGM0504 in db/db mice: a low-dose group (0.05 mg/kg), a standard dose group (0.15 mg/kg), and a high-dose group (0.5 mg/kg), each comprising 11 db/db mice. Subsequent administrations were conducted every 3 days following the initial administration, and the experiment spanned 31 days. […] To thoroughly investigate the dose dependence of BGM0504 in db/db mice, we established additional dose groups, including a low-dose group at 0.05 mg/kg and a high-dose group at 0.5 mg/kg. Each experimental group comprised 11 db/db mice. Following the initial administration, subsequent doses were administered every 3 days, spanning a total of 31 days. Throughout this study, we meticulously observed and analyzed a spectrum of parameters encompassing changes in body weight, food intake, non-fasting blood glucose post-initial administration. In this experimental endeavor, we engaged 55 male db/db mice of SPF grade, procured at 6–8 weeks, from Zhejiang Vital River Laboratory Animal Technology Co., Ltd. The animals were divided into groups based on body weight and fasting blood glucose levels. […] The groups included the db/db-ND group, the Tirzepatide-0.15 mg/kg group, the BGM0504-0.05 mg/kg group, the BGM0504-0.15 mg/kg group, and the BGM0504-0.5 mg/kg group, each comprising 11 mice. […] Non-fasting blood glucose levels were measured at 0, 1, 2, 3, 6, 24, 48, and 72 hours post-administration. Three days after the last dose, the mice were weighed. Subsequently, a portion of non-anticoagulated whole blood was collected from the orbital venous plexus under anesthesia. Blood samples were left at room temperature for 30 minutes, then centrifuged at 5000 rpm for 5 minutes. The serum was separated and frozen at -80°C for serum insulin content testing. Serum insulin levels were measured using the enzyme-linked immunosorbent assay (ELISA) method.

[3] = molecular target: T2, Human GIPR (Homo sapiens, UniProt P48546); assay: cAMP accumulation assay, GIPR; type: cell-based
T2 construct: expressed in transfected cells; host or cells: CHO cells
T2 sequence (P48546 22-466): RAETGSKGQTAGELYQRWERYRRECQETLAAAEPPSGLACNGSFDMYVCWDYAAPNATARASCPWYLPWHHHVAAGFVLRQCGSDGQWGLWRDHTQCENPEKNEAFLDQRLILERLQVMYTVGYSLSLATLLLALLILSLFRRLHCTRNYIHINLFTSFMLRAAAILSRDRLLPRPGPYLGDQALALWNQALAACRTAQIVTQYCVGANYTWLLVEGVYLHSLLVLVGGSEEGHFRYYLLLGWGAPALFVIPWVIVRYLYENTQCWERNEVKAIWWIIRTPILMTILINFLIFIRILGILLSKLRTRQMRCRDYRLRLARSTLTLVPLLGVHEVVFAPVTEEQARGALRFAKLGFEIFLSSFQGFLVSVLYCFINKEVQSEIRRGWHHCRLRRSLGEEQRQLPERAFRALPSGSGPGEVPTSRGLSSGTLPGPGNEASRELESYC
Experimental: (§1) These cells were then resuspended in 5 mL of the assay buffer, and their concentration was determined using a Vi-Cell Counter. […] Samples were subsequently added to the assay plate along with ECHO555. […] A volume of 10 µL of the cell suspension was added to the assay plate, with a density of 1000 cells/well for GLP-1R testing and 2000 cells/well for GIPR testing. The assay plate was then incubated in a 23°C incubator for 30 minutes. A starting concentration of 800 nM was used to prepare the cAMP standard curve, followed by a 4-fold 10-point serial dilution. These serially diluted cAMP standards were added to the assay plate at a volume of 10 µL/well. Subsequently, 10 µL of the cAMP detection solution was added to the assay plate, and the plate was incubated at room temperature for 1 hour, shielded from direct light. […] For data analysis, each data point’s cAMP level (nM) was calculated using the established cAMP standard curve. The percentage activity for each data point was determined using the formula: % Activity = (cAMP level of testing sample - average cAMP level of low control) / ([…] cAMP level of high control - average cAMP level of […] control) × 100%. Additionally, the ‘log(agonist) vs. response – variable slope’ model in GraphPad Prism 5.0 was used to fit the dose-response curve of each sample and calculate the EC50 value.

[4] = molecular target: T3, Human GLP-1R (Homo sapiens, UniProt P43220); assay: cAMP accumulation assay, GLP-1R; type: cell-based
T3 construct: expressed in transfected cells; host or cells: HEK293 cells
T3 sequence (P43220 24-463): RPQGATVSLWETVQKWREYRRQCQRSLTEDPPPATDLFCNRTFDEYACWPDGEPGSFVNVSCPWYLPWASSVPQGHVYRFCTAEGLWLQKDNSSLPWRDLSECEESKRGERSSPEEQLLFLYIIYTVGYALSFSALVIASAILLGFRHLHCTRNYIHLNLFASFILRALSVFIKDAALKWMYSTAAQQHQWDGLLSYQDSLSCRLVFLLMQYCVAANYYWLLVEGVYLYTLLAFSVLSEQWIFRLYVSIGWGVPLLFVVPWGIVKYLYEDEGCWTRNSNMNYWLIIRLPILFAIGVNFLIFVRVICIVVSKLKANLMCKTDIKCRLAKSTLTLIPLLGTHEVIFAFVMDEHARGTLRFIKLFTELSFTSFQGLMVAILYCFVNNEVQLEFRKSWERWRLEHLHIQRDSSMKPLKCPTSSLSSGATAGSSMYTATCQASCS
Experimental: as §1

T1 sequence (P02768 25-609): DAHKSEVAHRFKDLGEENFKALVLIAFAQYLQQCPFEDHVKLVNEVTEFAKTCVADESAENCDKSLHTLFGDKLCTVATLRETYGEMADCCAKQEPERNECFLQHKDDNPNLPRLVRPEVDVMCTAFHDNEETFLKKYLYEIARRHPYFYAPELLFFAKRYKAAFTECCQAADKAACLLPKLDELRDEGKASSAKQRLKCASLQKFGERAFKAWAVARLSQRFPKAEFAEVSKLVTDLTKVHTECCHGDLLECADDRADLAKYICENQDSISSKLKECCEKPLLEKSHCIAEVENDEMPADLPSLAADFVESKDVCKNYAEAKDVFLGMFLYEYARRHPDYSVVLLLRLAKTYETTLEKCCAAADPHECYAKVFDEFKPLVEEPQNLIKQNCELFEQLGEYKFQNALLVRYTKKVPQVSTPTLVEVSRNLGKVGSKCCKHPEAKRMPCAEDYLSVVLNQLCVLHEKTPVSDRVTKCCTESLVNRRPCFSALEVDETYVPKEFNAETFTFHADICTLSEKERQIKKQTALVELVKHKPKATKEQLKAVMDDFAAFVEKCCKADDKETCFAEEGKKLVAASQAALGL

CC[C@H](C)[C@H](NC(=O)[C@H](CC(C)C)NC(=O)[C@H](Cc1c[nH]c2ccccc12)NC(=O)[C@H](CCC(N)=O)NC(=O)[C@@H](NC(=O)[C@H](Cc1ccccc1)NC(=O)[C@H](C)NC(=O)[C@H](CCCCN)NC(=O)[C@H](CCC(N)=O)NC(=O)[C@H](C)NC(=O)[C@@H](NC(=O)[C@H](CCCCN)NC(=O)[C@H](CC(=O)O)NC(=O)[C@H](CC(C)C)NC(=O)C(C)(C)NC(=O)[C@@H](NC(=O)[C@H](CO)NC(=O)[C@H](Cc1ccc(O)cc1)NC(=O)[C@H](CC(=O)O)NC(=O)[C@H](CO)NC(=O)[C@@H](NC(=O)[C@H](Cc1ccccc1)NC(=O)[C@@H](NC(=O)CNC(=O)[C@H](CCC(=O)O)NC(=O)C(C)(C)NC(=O)[C@@H](N)Cc1ccc(O)cc1)[C@@H](C)O)[C@@H](C)O)[C@@H](C)CC)[C@@H](C)CC)C(C)C)C(=O)N[C@@H](C)C(=O)NCC(=O)NCC(=O)N1CCC[C@H]1C(=O)N[C@@H](CO)C(=O)N[C@@H](CO)C(=O)NCC(=O)N[C@@H](C)C(=O)N1CCC[C@H]1C(=O)N1CCC[C@H]1C(=O)N1CCC[C@H]1C(=O)N[C@@H](CO)C(=O)N[C@@H](CCCCNC(=O)COCCOCCOCCNC(=O)COCCOCCOCCNC(=O)CC[C@H](NC(=O)CCCCCCCCCCCCCCCCCCC(=O)O)C(=O)O)C(N)=O [BGM0504]
Kd [1]: 73 nM | Insulin in serum ([2]; 0.05 mg/kg s.c. every 3 days): 37649.0±3597.0^a nIU/mL | Insulin in serum ([2]; 0.15 mg/kg s.c. every 3 days): 30897.0±5634.0^a nIU/mL | Insulin in serum ([2]; 0.5 mg/kg s.c. every 3 days): 32774.0±6290.0^a nIU/mL | body weight and food intake ([2]; early stages of administration): acute decline in body weight and food intake | non-fasting blood glucose within 72 h after first administration, vs db/db-ND group ([2]; s.c., Tirzepatide 0.15 mg/kg, BGM0504 0.05, 0.15, 0.5 mg/kg, n = 11): significant blood glucose suppression | EC50 [3]: 0.182 nM | Emax ([3]; CHO): 106 ± 7.9% | EC50 ([4]; HEK293 cells with high expression of GLP-1 receptor, 1000 cells/well, 30 min 23°C, geometric mean ± SEM, n = 3): 0.031 nM | Emax ([4]; HEK293 cells, relative to 10 nM GLP-1(7–37) high control, arithmetic mean ± SEM): 92.7 ± 7.6%
